Data reported in ChEMBL document CHEMBL3526091, “Pharmacokinetics, metabolism, and excretion of the glycogen synthase kinase-3 inhibitor LY2090314 in rats, dogs, and humans: a case study in rapid clearance by extensive metabolism with low circulating metabolite exposure” (Drug Metab Dispos, 2013).

How the values were obtained:
Type in all cases: ADME, organism-based
[1] = Tmax in cancer patient at 10 mg for 60 mins treated 1/1 cycle/day; set-up: dosed compound name LY2090314; conditions: human, in vivo
[2] = Tmax in cancer patient at 60 mg for 60 mins treated 1/1 cycle/day; set-up: dosed compound name LY2090314; conditions: human, in vivo
[3] = Tmax in cancer patient at 10 mg for 60 mins treated 2/1 cycle/day; set-up: dosed compound name LY2090314; conditions: human, in vivo
[4] = Tmax in cancer patient at 20 mg for 60 mins treated 2/1 cycle/day; set-up: dosed compound name LY2090314; conditions: human, in vivo
[5] = Tmax in cancer patient at 40 mg for 60 mins treated 1/8 cycle/day; set-up: dosed compound name LY2090314; conditions: human, in vivo
[6] = Half life in cancer patient at 60 mg for 60 mins treated 1/8 cycle/day; set-up: dosed compound name LY2090314; conditions: human, in vivo
[7] = Half life in cancer patient at 80 mg for 60 mins treated 1/8 cycle/day; set-up: dosed compound name LY2090314; conditions: human, in vivo
Homo sapiens = species: Homo sapiens; test: Drug recovery in cancer patient at 80 to 120 mg for 60 mins; set-up: dosed compound name LY2090314; conditions: in vivo, 1 h
[8] = Drug recovery in bile duct-intact Sprague-Dawley rat assessed as radioactivity in feces during 0 to 24 hrs at 5 mg/kg, iv for 30 mins; set-up: dose 5 mg/kg, dosed compound name [14C]LY2090314, route intravenous; conditions: in vivo
[9] = Drug recovery in bile duct-cannulated Sprague-Dawley rat bile at 5 mg/kg, iv administered for 30 mins during 0 to 168 hrs time interval by radio analysis; set-up: dose 5 mg/kg, dosed compound name [14C]LY2090314, route intravenous; conditions: in vivo
[10] = AUC (0 to infinity) in cancer patient at 80 mg for 60 mins treated 1/8 cycle/day; set-up: dose 80 mg, time infinity, dosed compound name LY2090314; conditions: human, plasma
[11] = Clearance in cancer patient at 40 mg for 60 mins treated 1/1 cycle/day; set-up: dosed compound name LY2090314; conditions: human, in vivo
[12] = Clearance in cancer patient at 80 mg for 60 mins treated 1/1 cycle/day; set-up: dosed compound name LY2090314; conditions: human, in vivo
[13] = Clearance in cancer patient at 80 mg for 60 mins treated 1/8 cycle/day; set-up: dosed compound name LY2090314; conditions: human, in vivo
[14] = Volume of distribution at steady state in cancer patient at 20 mg for 60 mins treated 1/1 cycle/day; set-up: dosed compound name LY2090314; conditions: human, in vivo, read-out: Vdss
[15] = Volume of distribution at steady state in cancer patient at 80 mg for 60 mins treated 1/1 cycle/day; set-up: dosed compound name LY2090314; conditions: human, in vivo, read-out: Vdss
[16] = Volume of distribution at steady state in cancer patient at 10 mg for 60 mins treated 2/1 cycle/day; set-up: dosed compound name LY2090314; conditions: human, in vivo, read-out: Vdss
[17] = Volume of distribution at steady state in cancer patient at 20 mg for 60 mins treated 2/1 cycle/day; set-up: dosed compound name LY2090314; conditions: human, in vivo, read-out: Vdss
[18] = Volume of distribution at steady state in cancer patient at 120 mg for 60 mins treated 1/8 cycle/day; set-up: dosed compound name LY2090314; conditions: human, in vivo, read-out: Vdss
[19] = Half life in cancer patient at 20 mg for 60 mins treated 1/1 cycle/day; set-up: dosed compound name LY2090314; conditions: human, in vivo
[20] = Half life in cancer patient at 40 mg for 60 mins treated 1/1 cycle/day; set-up: dosed compound name LY2090314; conditions: human, in vivo
[21] = Half life in cancer patient at 120 mg for 60 mins treated 1/1 cycle/day; set-up: dosed compound name LY2090314; conditions: human, in vivo
[22] = Half life in cancer patient at 10 mg for 60 mins treated 2/1 cycle/day; set-up: dosed compound name LY2090314; conditions: human, in vivo
[23] = Tmax in cancer patient at 80 mg for 60 mins treated 1/8 cycle/day; set-up: dosed compound name LY2090314; conditions: human, in vivo
[24] = Tmax in cancer patient at 120 mg for 60 mins treated 1/8 cycle/day; set-up: dosed compound name LY2090314; conditions: human, in vivo
[25] = AUC (0 to infinity) in cancer patient at 10 mg for 60 mins treated 1/1 cycle/day; set-up: dose 10 mg, time infinity, dosed compound name LY2090314; conditions: human, plasma
[26] = AUC (0 to infinity) in cancer patient at 60 mg for 60 mins treated 1/1 cycle/day; set-up: dose 60 mg, time infinity, dosed compound name LY2090314; conditions: human, plasma

## O=C1NC(=O)C(c2cnc3ccccn23)=C1c1cn2c3c(cc(F)cc13)CN(C(=O)N1CCCCC1)CC2 [LY-2090314]
[1]
  Tmax: 0.95 h
[2]
  Tmax: 0.55 h
[3]
  Tmax: 0.92 h
[4]
  Tmax: 0.75 h
[5]
  Tmax: 1 h
[6]
  half-life: 3.35 h
[7]
  half-life: 2.6 h
Homo sapiens
  Compound recovery: 1.6%
[8]
  Radiolabel recovery: 2.43%
[9]
  Radiolabel recovery: 85.8%
[10]
  AUC(0-inf): 1830 ng·h/mL
[11]
  clearance: 688 mL/min
[12]
  clearance: 747 mL/min
[13]
  clearance: 765 mL/min
[14]
  Vd: 77.5 L
[15]
  Vd: 86.3 L
[16]
  Vd: 101 L
[17]
  Vd: 71.5 L
[18]
  Vd: 143 L
[19]
  half-life: 1.84 h
[20]
  half-life: 3.15 h
[21]
  half-life: 2.97 h
[22]
  half-life: 2.44 h
[23]
  Tmax: 0.98 h
[24]
  Tmax: 0.5 h
[25]
  AUC(0-inf): 216 ng·h/mL
[26]
  AUC(0-inf): 1600 ng·h/mL
